Experimental findings from US11673884B2, “Matrix metalloproteinase (MMP) inhibitors and methods of use thereof” (Foresee Pharmaceuticals Co., Ltd., priority 2019, dated 2023) are described below.

Assay type in all cases: biochemical
One assay has as its target recombinant human MMP-14 (Homo sapiens (Human), UniProt P50281). As to the kind of experiment: MMP selectivity assay, MMP-14. The settings on record: Table 2 selectivity profile; read-out: IC50, Target: MMP 14. Here is the method: (§1) The inhibitory effect of compounds on the rate of cleaving fluorogenic MMP substrate (Enzo, BML-P128) by recombinant human MMP-12 catalytic domain (Enzo, BML-SE138) was carried out by methods known in the art. Briefly, to each well of a 96-well black opaque plate, all the reagents were sequentially added by pipetting, and the final reaction contained 4 nM of recombinant human MMP-12 catalytic domain, 4 μM of fluorogenic MMP substrate, and various concentrations (0.057 nM to 1,000 nM) of tested compound dilutions in HEPES buffer (pH 7.5) containing 10 mM of CaCl2, 0.01% Brij® 35 (polyoxyethylene (23) lauryl ether), and 0.1 mg/ml of BSA.
(§2) The enzyme and compounds were pre-incubated on a shaker to mix in wells. After an hour of mixing, fluorogenic substrate was added to each well. Reaction without enzyme was used as a blank control in the plate. The plate was then fed into a plate reader to measure fluorescence intensity at Excitation/Emission wavelengths of 340 nm/440 nm every 10 mins for at least 1 hour at 37° C. The IC50 of each compound in MMP-12 inhibition was determined by using a readout obtained at time point 30 minutes.
(§3) The MMP selectivity assay was performed by using other recombinant human MMPs, including MMP-1, MMP-2, MMP-3, MMP-7, MMP-8, MMP-9, MMP-10, MMP-12, MMP-13, and MMP-14. The IC50 of the compounds for the other recombinant human MMPs was determined as described above in Example 1, and are shown in Table 2. The IC50 values are reported as follows: A=less than 1 nM, B=1 nM to 10 nM, C=10 nM to 100 nM, D=greater than 100 nM.

For a further assay, the target named is recombinant human MMP-13 (Homo sapiens (Human), UniProt P45452). As to the kind of experiment: MMP selectivity assay, MMP-13. The settings on record: Table 2 selectivity profile; read-out: IC50, Target: MMP 13. The protocol:
as §1, §2, §3

The next assay has as its target recombinant human MMP-9 (Homo sapiens (Human), UniProt P14780). As to the kind of experiment: MMP selectivity assay, MMP-9. Particulars: Table 2 selectivity profile; read-out: IC50, Target: MMP 9. The protocol:
as §1, §2, §3

Another assay addresses recombinant human MMP-10 (Homo sapiens (Human), UniProt P09238). As to the kind of experiment: MMP selectivity assay, MMP-10. The settings on record: Table 2 selectivity profile; read-out: IC50, Target: MMP 10. Here is the method:
as §1, §2, §3

The next assay concerns the target recombinant human MMP-7 (Homo sapiens (Human), UniProt P09237). As to the kind of experiment: MMP selectivity assay, MMP-7. Particulars: Table 2 selectivity profile; read-out: IC50, Target: MMP 7. Here is the method: as §1, §2, §3
For the next assay, the target named is recombinant human MMP-8 (Homo sapiens (Human), UniProt P22894). As to the kind of experiment: MMP selectivity assay, MMP-8. Particulars: Table 2 selectivity profile; read-out: IC50, Target: MMP 8. Here is the method:
as §1, §2, §3

Another assay deals with recombinant human MMP-1 (Homo sapiens (Human), UniProt P03956). As to the kind of experiment: MMP selectivity assay, MMP-1. Particulars: Table 2 selectivity profile; read-out: IC50, Target: MMP 1. Here is the method: as §1, §2, §3
A further assay addresses recombinant human MMP-3 (Homo sapiens (Human), UniProt P08254). As to the kind of experiment: MMP selectivity assay, MMP-3. The settings on record: Table 2 selectivity profile; read-out: IC50, Target: MMP 3. The protocol:
as §1, §2, §3

The target of another assay is recombinant human MMP-2 (Homo sapiens (Human), UniProt P08253). As to the kind of experiment: MMP selectivity assay, MMP-2. The settings on record: Table 2 selectivity profile; read-out: IC50, Target: MMP 2. Here is the method:
as §1, §2, §3

Assay [1] addresses recombinant human MMP-12 catalytic domain (Homo sapiens (Human), UniProt P39900). As to the kind of experiment: MMP-12 inhibitory assay, fluorogenic substrate cleavage. Here is the method: as §1, §2
Where [2] appears, read: Table 1, readout at time point 30 minutes, read-out: MMP-12 IC50.
[3] abbreviates: Table 2 selectivity profile, read-out: IC50, Target: MMP 12.

Read-outs that look alike come from different tables or passages of the source.

The IC50 is the concentration needed to halve the response being measured.

Chain of recombinant human MMP-2 (P08253 110-660): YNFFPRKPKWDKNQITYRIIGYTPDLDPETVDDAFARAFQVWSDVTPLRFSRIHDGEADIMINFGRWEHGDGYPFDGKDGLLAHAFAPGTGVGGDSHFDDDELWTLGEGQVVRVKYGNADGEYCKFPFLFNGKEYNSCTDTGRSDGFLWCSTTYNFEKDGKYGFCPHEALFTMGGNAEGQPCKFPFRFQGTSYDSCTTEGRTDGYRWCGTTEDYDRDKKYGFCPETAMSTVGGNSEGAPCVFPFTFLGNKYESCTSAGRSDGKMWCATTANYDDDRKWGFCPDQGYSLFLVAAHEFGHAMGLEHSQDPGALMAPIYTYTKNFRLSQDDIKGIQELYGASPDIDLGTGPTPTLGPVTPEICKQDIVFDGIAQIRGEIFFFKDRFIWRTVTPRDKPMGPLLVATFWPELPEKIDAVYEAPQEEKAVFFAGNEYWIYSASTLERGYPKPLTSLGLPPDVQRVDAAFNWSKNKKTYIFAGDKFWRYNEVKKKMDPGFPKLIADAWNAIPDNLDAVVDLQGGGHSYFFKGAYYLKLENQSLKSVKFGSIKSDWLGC
Chain of recombinant human MMP-10 (P09238 99-476): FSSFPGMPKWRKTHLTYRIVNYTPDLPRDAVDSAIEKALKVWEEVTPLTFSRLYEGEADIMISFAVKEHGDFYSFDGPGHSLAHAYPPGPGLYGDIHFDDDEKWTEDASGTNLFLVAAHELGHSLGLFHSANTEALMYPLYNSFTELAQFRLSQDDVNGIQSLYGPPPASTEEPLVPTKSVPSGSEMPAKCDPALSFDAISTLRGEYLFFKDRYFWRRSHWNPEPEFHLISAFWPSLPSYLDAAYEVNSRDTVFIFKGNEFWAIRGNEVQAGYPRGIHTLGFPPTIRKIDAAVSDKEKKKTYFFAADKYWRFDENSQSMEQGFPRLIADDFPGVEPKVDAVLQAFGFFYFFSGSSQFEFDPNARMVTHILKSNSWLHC
Chain of recombinant human MMP-9 (P14780 94-707): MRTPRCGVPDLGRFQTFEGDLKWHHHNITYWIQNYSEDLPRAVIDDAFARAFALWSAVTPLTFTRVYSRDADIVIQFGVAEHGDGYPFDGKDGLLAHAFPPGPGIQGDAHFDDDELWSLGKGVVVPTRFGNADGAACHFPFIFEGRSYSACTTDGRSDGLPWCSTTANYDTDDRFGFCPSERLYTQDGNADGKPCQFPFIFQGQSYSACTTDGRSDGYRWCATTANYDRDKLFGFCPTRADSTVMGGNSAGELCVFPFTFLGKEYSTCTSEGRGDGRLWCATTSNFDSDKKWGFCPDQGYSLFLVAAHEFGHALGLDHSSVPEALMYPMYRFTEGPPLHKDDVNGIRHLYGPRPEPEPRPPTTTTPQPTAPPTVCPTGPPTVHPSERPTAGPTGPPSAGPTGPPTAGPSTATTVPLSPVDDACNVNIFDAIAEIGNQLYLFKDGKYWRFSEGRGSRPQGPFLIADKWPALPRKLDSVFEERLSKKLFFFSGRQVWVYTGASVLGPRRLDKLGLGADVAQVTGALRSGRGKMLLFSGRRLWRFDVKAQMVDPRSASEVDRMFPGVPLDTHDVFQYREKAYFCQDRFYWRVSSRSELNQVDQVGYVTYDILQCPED
Chain of recombinant human MMP-3 (P08254 100-477): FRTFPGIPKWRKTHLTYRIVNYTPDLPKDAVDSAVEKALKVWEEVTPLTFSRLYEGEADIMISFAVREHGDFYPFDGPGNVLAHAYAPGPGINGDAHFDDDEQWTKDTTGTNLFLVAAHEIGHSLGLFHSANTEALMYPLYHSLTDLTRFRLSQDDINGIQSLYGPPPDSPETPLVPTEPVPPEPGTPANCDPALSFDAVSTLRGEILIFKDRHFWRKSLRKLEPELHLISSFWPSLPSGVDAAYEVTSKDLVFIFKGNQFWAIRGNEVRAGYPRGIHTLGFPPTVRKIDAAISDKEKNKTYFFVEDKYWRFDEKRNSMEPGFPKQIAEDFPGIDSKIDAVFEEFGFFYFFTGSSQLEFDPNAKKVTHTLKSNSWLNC
Chain of recombinant human MMP-8 (P22894 101-467): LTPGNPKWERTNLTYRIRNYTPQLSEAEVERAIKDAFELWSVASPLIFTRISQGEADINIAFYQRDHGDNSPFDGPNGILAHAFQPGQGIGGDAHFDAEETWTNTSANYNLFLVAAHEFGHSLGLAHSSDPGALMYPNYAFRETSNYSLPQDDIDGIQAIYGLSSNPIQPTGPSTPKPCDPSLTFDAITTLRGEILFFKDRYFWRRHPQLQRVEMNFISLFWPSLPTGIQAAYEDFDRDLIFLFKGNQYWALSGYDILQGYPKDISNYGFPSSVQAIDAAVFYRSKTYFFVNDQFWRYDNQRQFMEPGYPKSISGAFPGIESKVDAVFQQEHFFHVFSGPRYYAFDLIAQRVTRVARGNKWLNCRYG
Chain of recombinant human MMP-1 (P03956 100-469): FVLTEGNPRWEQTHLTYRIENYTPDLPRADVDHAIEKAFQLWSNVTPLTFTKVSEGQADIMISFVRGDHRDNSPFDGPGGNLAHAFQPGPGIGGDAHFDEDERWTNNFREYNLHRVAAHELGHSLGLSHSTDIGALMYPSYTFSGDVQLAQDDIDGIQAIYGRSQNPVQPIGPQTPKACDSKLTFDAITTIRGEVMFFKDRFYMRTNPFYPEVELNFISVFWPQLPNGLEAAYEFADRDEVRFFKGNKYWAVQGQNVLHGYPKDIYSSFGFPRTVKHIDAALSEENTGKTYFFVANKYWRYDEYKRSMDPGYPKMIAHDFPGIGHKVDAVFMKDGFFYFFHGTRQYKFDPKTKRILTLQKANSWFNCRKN
Chain of recombinant human MMP-12 catalytic domain (P39900 106-268): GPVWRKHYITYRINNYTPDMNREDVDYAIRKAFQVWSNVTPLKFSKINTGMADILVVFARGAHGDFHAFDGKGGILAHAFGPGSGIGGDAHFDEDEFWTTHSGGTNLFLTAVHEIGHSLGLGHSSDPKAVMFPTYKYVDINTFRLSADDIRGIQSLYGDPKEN
Chain of recombinant human MMP-7 (P09237 95-267): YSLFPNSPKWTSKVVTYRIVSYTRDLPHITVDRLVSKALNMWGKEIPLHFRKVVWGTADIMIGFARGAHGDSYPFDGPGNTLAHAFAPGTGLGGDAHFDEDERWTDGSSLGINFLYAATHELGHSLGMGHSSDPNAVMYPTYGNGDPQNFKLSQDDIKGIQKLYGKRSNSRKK

As to `Cc1cc(C#Cc2ccc(Sc3ccsc3C3NC(=O)NC3=O)cc2)ccn1` (centres unmarked) [AC-9], the IC50 on recombinant human MMP-14 is more than 100 nM; at recombinant human MMP-13 it was more than 100 nM; at recombinant human MMP-9 it was more than 100 nM; on recombinant human MMP-10, more than 100 nM; at recombinant human MMP-7, more than 100 nM; at recombinant human MMP-8, 10 to 100 nM. Besides, the IC50 on recombinant human MMP-1 was more than 100 nM; on recombinant human MMP-3, more than 100 nM; on recombinant human MMP-2 it was 10 to 100 nM; in [1] (setting [2]) it was less than 1 nM; in assay [1] (setting [3]), less than 1 nM.

On to `Cc1cc(C#Cc2ccc(Sc3ccncc3C3NC(=O)NC3=O)cc2)ccn1` (centres unmarked) [AC-4], for which the IC50 at recombinant human MMP-14, at recombinant human MMP-13, on recombinant human MMP-9, at recombinant human MMP-10, on recombinant human MMP-7 and on recombinant human MMP-8 was more than 100 nM each time. In addition, the half-inhibitory concentration (IC50) at recombinant human MMP-1 was more than 100 nM; on recombinant human MMP-3, more than 100 nM; on recombinant human MMP-2, more than 100 nM; in assay [1] (setting [2]), 1 to 10 nM; in assay [1] (setting [3]), 1 to 10 nM.

Consider `Cc1cc(C#Cc2ccc(Sc3ccoc3C3NC(=O)NC3=O)cc2)ccn1` (centres unmarked) [AC-1], for which the IC50 on recombinant human MMP-14, at recombinant human MMP-13, on recombinant human MMP-9, on recombinant human MMP-10, on recombinant human MMP-7 and at recombinant human MMP-8 was more than 100 nM in each case. Moreover, the IC50 on recombinant human MMP-1 was more than 100 nM; at recombinant human MMP-3, more than 100 nM; at recombinant human MMP-2, more than 100 nM; in [1] (setting [2]) it was 10 to 100 nM; in assay [1] (setting [3]), 10 to 100 nM.

In the case of `CCC1(c2cnccc2Sc2ccc(/C=C/c3ccnc(C)c3)cc2)NC(=O)NC1=O` (centres unmarked) [AC-8], the half-maximal inhibitory concentration (IC50) in assay [1] (setting [2]) is less than 1 nM.

Turning to `Cc1cc(/C=C/c2ccc(Sc3ccoc3C3NC(=O)NC3=O)cc2)ccn1` (centres unmarked) [AC-2], the IC50 on recombinant human MMP-14 was more than 100 nM; on recombinant human MMP-13, 10 to 100 nM; on recombinant human MMP-9, 10 to 100 nM; at recombinant human MMP-10, more than 100 nM; at recombinant human MMP-7, more than 100 nM; on recombinant human MMP-8, 10 to 100 nM. The IC50 on recombinant human MMP-1 is more than 100 nM; on recombinant human MMP-3 it was 10 to 100 nM; on recombinant human MMP-2, 1 to 10 nM; in assay [1] (setting [2]) it was less than 1 nM; in [1] (setting [3]) it was less than 1 nM.

Turning to `Cc1cc(C#Cc2ccc(Sc3cnn(C)c3C3NC(=O)NC3=O)cc2)ccn1` (centres unmarked) [AC-11], the IC50 on recombinant human MMP-14 was more than 100 nM; at recombinant human MMP-13, more than 100 nM; at recombinant human MMP-9, more than 100 nM; on recombinant human MMP-10, more than 100 nM; at recombinant human MMP-7 it was more than 100 nM; at recombinant human MMP-8, 10 to 100 nM. Further, the IC50 is more than 100 nM at recombinant human MMP-1; more than 100 nM on recombinant human MMP-3; 10 to 100 nM at recombinant human MMP-2; less than 1 nM in assay [1] (setting [2]); less than 1 nM in assay [1] (setting [3]).

Regarding `Cc1cc(/C=C/c2ccc(Oc3ccncc3C3NC(=O)NC3=O)cc2)ccn1` (centres unmarked) [AC-6], the half-maximal inhibitory concentration (IC50) at recombinant human MMP-14 is more than 100 nM; at recombinant human MMP-13 it was more than 100 nM; on recombinant human MMP-9, more than 100 nM; at recombinant human MMP-10, more than 100 nM; on recombinant human MMP-7 it was more than 100 nM; on recombinant human MMP-8 it was 10 to 100 nM. In addition, the IC50 at recombinant human MMP-1 was more than 100 nM; at recombinant human MMP-3, more than 100 nM; on recombinant human MMP-2, 10 to 100 nM; in assay [1] (setting [2]) it was less than 1 nM; in assay [1] (setting [3]), less than 1 nM.

Regarding `Cc1cc(/C=C/c2ccc(Sc3cnn(C)c3C3NC(=O)NC3=O)cc2)ccn1` (centres unmarked) [AC-12], the IC50 on recombinant human MMP-14 was more than 100 nM; on recombinant human MMP-13 it was 10 to 100 nM; on recombinant human MMP-9, more than 100 nM; at recombinant human MMP-10, more than 100 nM; on recombinant human MMP-7, more than 100 nM; at recombinant human MMP-8, 10 to 100 nM. The IC50 at recombinant human MMP-1 is more than 100 nM; at recombinant human MMP-3 it was more than 100 nM; on recombinant human MMP-2, 1 to 10 nM; in assay [1] (setting [2]) it was less than 1 nM; in assay [1] (setting [3]), less than 1 nM.

For `CCC1(c2occc2Sc2ccc(/C=C/c3ccnc(C)c3)cc2)NC(=O)NC1=O` (centres unmarked) [AC-3], the IC50 at recombinant human MMP-14 is more than 100 nM; at recombinant human MMP-13 it was 10 to 100 nM; on recombinant human MMP-9 it was 10 to 100 nM; at recombinant human MMP-10, 10 to 100 nM; at recombinant human MMP-7 it was more than 100 nM; on recombinant human MMP-8 it was 1 to 10 nM. The IC50 at recombinant human MMP-1 is more than 100 nM; at recombinant human MMP-3, 10 to 100 nM; at recombinant human MMP-2, 1 to 10 nM; in assay [1] (setting [2]) it was less than 1 nM; in assay [1] (setting [3]), less than 1 nM.

On to `Cc1cc(/C=C/c2ccc(Sc3ccncc3C3NC(=O)NC3=O)cc2)ccn1` (centres unmarked) [AC-5], for which the IC50 on recombinant human MMP-14, on recombinant human MMP-13, at recombinant human MMP-9, on recombinant human MMP-10, at recombinant human MMP-7 and at recombinant human MMP-8 was more than 100 nM throughout. Moreover, the IC50 was more than 100 nM on recombinant human MMP-1; more than 100 nM on recombinant human MMP-3; 10 to 100 nM on recombinant human MMP-2; less than 1 nM in assay [1] (setting [2]); less than 1 nM in assay [1] (setting [3]).

For the molecule `Cc1cc(C#Cc2ccc(Oc3ccncc3C3NC(=O)NC3=O)cc2)ccn1` (centres unmarked) [AC-7], the IC50 on recombinant human MMP-14, at recombinant human MMP-13, on recombinant human MMP-9, at recombinant human MMP-10, at recombinant human MMP-7 and at recombinant human MMP-8 was more than 100 nM throughout. The half-inhibitory concentration (IC50) is more than 100 nM on recombinant human MMP-1; more than 100 nM at recombinant human MMP-3; more than 100 nM on recombinant human MMP-2; 1 to 10 nM in assay [1] (setting [2]); 1 to 10 nM in [1] (setting [3]).

Consider `Cc1cc(/C=C/c2ccc(Sc3ccsc3C3NC(=O)NC3=O)cc2)ccn1` (centres unmarked) [AC-10], for which the IC50 at recombinant human MMP-14 was more than 100 nM; at recombinant human MMP-13 it was 1 to 10 nM; at recombinant human MMP-9, 10 to 100 nM; at recombinant human MMP-10, more than 100 nM; on recombinant human MMP-7, more than 100 nM; on recombinant human MMP-8, 1 to 10 nM. Besides, the IC50 at recombinant human MMP-1 was more than 100 nM; at recombinant human MMP-3 it was 10 to 100 nM; on recombinant human MMP-2, 1 to 10 nM; in assay [1] (setting [2]), less than 1 nM; in assay [1] (setting [3]), less than 1 nM.
